Columns and labels:
hAChE = details: cited from earlier work
[1] = precipitation during incubation in MTS assay; assay type: physicochemical; details: 72 h
Protocol: (A) Concentration–response on HEK-293 cells. (B) Concentration–response on HepG2 cells. Statistical significance was evaluated by one-way ANOVA, followed by Bonferroni’s comparison test (****p < 0.0001). DX, doxorubicin; CCCP, carbonyl cyanide 3-chlorophenyl […]. ASS234 precipitated at 100 μM during incubation.
(§1) Cytotoxicity and hepatotoxicity were estimated using the human embryonic kidney HEK-293 cell line (ATCC CRL-1573) and hepatoma HepG2 (ATCC HB-8065) cell line. The CellTiter 96 Aqueous Non-Radioactive Cell Proliferation Assay (MTS) was purchased from Promega (Madison, WI, USA) and performed according to the manufacturer’s protocol. […] The antiproliferative drug doxorubicin (DX) (1 μM) and mitochondrial toxin carbonyl cyanide 3-chlorophenyl-hydrazone (CCCP) (10 μM, only in hepatotoxicity assay) were used as positive controls (purchased from Sigma-Aldrich, St. Louis, MO, USA).

MAO A = details: Figure 1; cited from earlier work
Huh7 cells [2] = test: MTT cell viability assay on Huh7; assay type: cell-based, human; details: for concentration at which compound began to elicit toxicity: Huh7, MTT, 24 h, 1-300 μM tested; for toxicity compared with ASS234: Huh7, MTT (Figure 5A)
Protocol: (§2) The human hepatoma cell line (Huh7) was purchased from the American Type Culture Collection (ATCC, Manassas, VA, USA). The generation and characterization of the immortalized mouse hepatocyte cell line WTIIB has been previously described.[24] Cell viability was measured by the quantitative colorimetric MTT (3-[4,5-dimethylthiazol-2-yl]-2,5 diphenyl tetrazolium bromide) assay as previously described, and triarylmethane dye (violet) assay following the protocol adapted from Feoktistova et al.[25] After the incubation period with the compounds, MTT reagent was added to each well at a final concentration of 0.5 mg/mL. The plate was placed in a humidified incubator at 37 °C with 5% CO2 and 95% air for 2 h. Then, the precipitated formazan was dissolved with dimethyl sulfoxide (DMSO) and the colorimetric determination of MTT was measured in the spectrophotometer at 540 nm wavelength. Nontreated cells were considered controls and were taken as 100% viability.

hS1R = details: read-out: KihS1R; cited from earlier work
hBuChE = details: cited from earlier work
WTIIB cells [3] = test: MTT cell viability assay on WTIIB; assay type: cell-based, mouse; details: for concentration at which compound began to elicit toxicity: MTT, 24 h, 1-300 μM tested
Protocol: as §2

MAO B = details: Figure 1; cited from earlier work
Huh7 cells [4] = test: crystal violet cell viability assay on Huh7; assay type: cell-based, human; details: for concentration at which compound began to elicit toxicity: Huh7, crystal violet, 24 h, 1-300 μM tested; for toxicity compared with ASS234: Huh7, crystal violet (Figure 5C)
Protocol: as §2
(§3) To perform the crystal violet assay, wells were washed twice in PBS and cells were fixed with 100 μL of crystal violet (Sigma-Aldrich, Madrid, Spain) solution at 0.2% prepared in ethanol. Plates were incubated for 20 min at room temperature in a bench rocker. Next, wells were washed four times with distilled water, and then the plate was inverted gently to remove any remaining liquid. The plate was dried at room temperature for at least 2 h and attached cells were resuspended in SDS 1% for 30 min in a bench rocker. The optical density was measured in the spectrophotometer at 540 nm wavelength. Nontreated cells were considered controls and were taken as 100% viability.

[5] = metabolic stability, 2 h incubation with human liver microsomes, UPLC-MS; assay type: in vitro ADME
Source text: The metabolic stability of a compound is an important factor that determines its pharmacokinetics and its potential as a drug candidate. Drugs are being metabolized in a variety of tissues including lungs, kidneys, or intestinal walls, but the liver plays an essential role in this process.
Then, the UPLC/MS analyses were done by using a Waters ACQUITY TQD system with the TQ Detector (Waters, Milford, MA, USA). The in silico prediction of the most probable sites of metabolism was done by ADMET Predictor, ver. […]
7.4) at 37 °C in the presence of NADPH Regeneration System (Promega, Madison, WI, USA). […]

WTIIB cells [6] = test: crystal violet cell viability assay on WTIIB; assay type: cell-based, mouse; details: for concentration at which compound began to elicit toxicity: crystal violet, 24 h, 1-300 μM tested; for toxicity compared with ASS234: crystal violet (Figure 5D)
Protocol: as §2, §3

HEK-293 cells = test: MTS cell viability assay on HEK-293; assay type: cell-based, human; details: HEK-293, MTS, 72 h; tested at 1, 10, 50, 100 μM
Protocol: as §1

[7] = system: SH-SY5Y human neuroblastoma cells; set-up: method as in PMID 28861918; details: cited from earlier work
HepG2 cells = test: MTS cell viability assay on HepG2; assay type: cell-based, human; details: 72 h, tested at 1, 10, 50, 100 μM
Protocol: as §1

[8] = biological target: histamine H3 receptor (H3R); details: cited from earlier work

Structure (SMILES): C#CCN(C)Cc1cc2cc(OCCCC3CCN(Cc4ccccc4)CC3)ccc2n1C [ASS234]
- IC50 (hAChE): 810 nM
- concentration at which compound precipitated during incubation [1]: 100 µM
- IC50 (MAO A): 5 nM
- concentration at which compound began to elicit toxicity (Huh7 cells [2]): ≥ 30 µM
- Ki (hS1R): 3 nM
- IC50 (hBuChE): 1820 nM
- concentration at which compound began to elicit toxicity (WTIIB cells [3]): ≥ 30 µM
- IC50 (MAO B): 177 nM
- concentration at which compound began to elicit toxicity (Huh7 cells [4]): ≥ 30 µM
- parent compound detected after incubation with HLMs [5]: the compound was not detected
- concentration at which compound began to elicit toxicity (WTIIB cells [6]): ≥ 30 µM

Structure (SMILES): C#CCNCc1cc2cc(OCc3ccccc3)ccc2[nH]1 [PF9601N, N-(2-Propynyl)-2-(5-Benzyloxy-Indolyl) Methylamine]
- IC50 (MAO A): 1250 nM
- IC50 (MAO B): 22 nM
- parent compound detected after incubation with HLMs [5]: 95%

Structure (SMILES): C#CCN(C)Cc1cc2cc(OCCCN3CCCCC3)ccc2n1C [contilisant]
- concentration range not affecting cell viability (HEK-293 cells): up to 10 μM
- toxicity compared with ASS234 (Huh7 cells [2]; 30 μM): less toxic than ASS234
- toxicity compared with ASS234 (Huh7 cells [2]; 300 μM): more toxic than ASS234
- concentration at which compound began to elicit toxicity (Huh7 cells [2]): ≥ 30 µM
- concentration range not affecting cell viability (Huh7 cells [2]; Huh7, abstract, assay not specified (MTT / crystal violet)): up to 30 μM
- Ki (hS1R): 65 nM
- effective concentration used in neuroprotection experiments [7]: 0.3 to 3 µM
- concentration range not affecting cell viability (HepG2 cells): up to 50 μM
- IC50 (hBuChE): 1690 nM
- toxicity compared with ASS234 (WTIIB cells [3]; 300 μM, MTT (Figure 5B)): more toxic than ASS234
- concentration at which compound began to elicit toxicity (WTIIB cells [3]): 100 µM
- IC50 (MAO B): 78 nM
- Ki [8]: 11 nM
- toxicity compared with ASS234 (Huh7 cells [4]; 30 μM): less toxic than ASS234
- toxicity compared with ASS234 (Huh7 cells [4]; 300 μM): more toxic than ASS234
- concentration at which compound began to elicit toxicity (Huh7 cells [4]): ≥ 30 µM
- parent compound detected after incubation with HLMs [5]: 97%
- toxicity compared with ASS234 (WTIIB cells [6]; 100 μM): less toxic than ASS234
- toxicity compared with ASS234 (WTIIB cells [6]; 300 μM): more toxic than ASS234
- concentration at which compound began to elicit toxicity (WTIIB cells [6]): 100 µM

Structure (SMILES): C#CCN(C)[C@H](C)Cc1ccccc1 [selegiline, reference compound]
- fraction of compound metabolized by HLMs [5]: about 54%

From article PMC7677930, “In Vitro and In Silico ADME-Tox Profiling and Safety Significance of Multifunctional Monoamine Oxidase Inhibitors Targeting Neurodegenerative Diseases” (ACS Chemical Neuroscience, 2020)
